Tested on: wild-type EBOV Mayinga

Structure (SMILES) | IC50 times higher than both TAT-EBO-PEG4-Chol and TAT-EBO-dPEG4-Chol | relative potency
CC[C@H](C)[C@H](NC(=O)CNC(=O)[C@H](CO)NC(=O)CNC(=O)[C@H](CCCNC(=N)N)NC(=O)[C@H](CCCNC(=N)N)NC(=O)[C@H](CCCNC(=N)N)NC(=O)[C@H](CCC(N)=O)NC(=O)[C@H](CCCNC(=N)N)NC(=O)[C@H](CCCNC(=N)N)NC(=O)[C@H](CCCCN)NC(=O)[C@H](CCCCN)NC(=O)[C@H](CCCNC(=N)N)NC(=O)CNC(=O)[C@H](Cc1ccc(O)cc1)NC(C)=O)C(=O)N[C@@H](C)C(=O)N[C@@H](C)C(=O)N[C@H](C(=O)N[C@@H](CC(C)C)C(=O)N1CCC[C@H]1C(=O)N[C@@H](Cc1c[nH]cn1)C(=O)N[C@@H](CC(=O)O)C(=O)N[C@@H](Cc1c[nH]c2ccccc12)C(=O)N[C@H](C(=O)N[C@@H](CCCCN)C(=O)N[C@@H](CC(N)=O)C(=O)N[C@H](C(=O)N[C@H](C(=O)N[C@@H](CC(=O)O)C(=O)N[C@@H](CCCCN)C(=O)N[C@H](C(=O)N[C@@H](CC(=O)O)C(=O)N[C@@H](CCC(N)=O)C(=O)N[C@H](C(=O)N[C@H](C(=O)N[C@@H](Cc1c[nH]cn1)C(=O)N[C@@H](CC(=O)O)C(=O)N[C@@H](Cc1ccccc1)C(=O)N[C@H](C(=O)N[C@@H](CC(=O)O)C(=O)N[C@@H](CCCCN)C(=O)NCC(=O)N[C@@H](CO)C(=O)NCC(=O)N[C@@H](CO)C(=O)NCC(=O)N[C@@H](CSCC(=O)NCCOCCOCCOCCOCCC(=O)O[C@H]1CC[C@@]2(C)C(=CC[C@H]3[C@@H]4CC[C@H]([C@H](C)CCCC(C)C)[C@@]4(C)CC[C@@H]32)C1)C(N)=O)C(C)C)[C@@H](C)CC)[C@@H](C)CC)[C@@H](C)CC)[C@@H](C)O)[C@@H](C)CC)[C@@H](C)O)[C@@H](C)CC [TAT-EBO-IAAILP-PEG4-Chol] | around 10 times | –
CC[C@H](C)[C@H](NC(=O)CNC(=O)[C@H](CO)NC(=O)CNC(=O)[C@H](CCCNC(=N)N)NC(=O)[C@H](CCCNC(=N)N)NC(=O)[C@H](CCCNC(=N)N)NC(=O)[C@H](CCC(N)=O)NC(=O)[C@H](CCCNC(=N)N)NC(=O)[C@H](CCCNC(=N)N)NC(=O)[C@H](CCCCN)NC(=O)[C@H](CCCCN)NC(=O)[C@H](CCCNC(=N)N)NC(=O)CNC(=O)[C@H](Cc1ccc(O)cc1)NC(C)=O)C(=O)N[C@@H](C)C(=O)N[C@@H](C)C(=O)N[C@H](C(=O)N[C@@H](CC(C)C)C(=O)N1CCC[C@H]1C(=O)N[C@@H](Cc1c[nH]cn1)C(=O)N[C@@H](CC(=O)O)C(=O)N[C@@H](Cc1c[nH]c2ccccc12)C(=O)N[C@H](C(=O)N[C@@H](CCCCN)C(=O)N[C@@H](CC(N)=O)C(=O)N[C@H](C(=O)N[C@H](C(=O)N[C@@H](CC(=O)O)C(=O)N[C@@H](CCCCN)C(=O)N[C@H](C(=O)N[C@@H](CC(=O)O)C(=O)N[C@@H](CCC(N)=O)C(=O)N[C@H](C(=O)N[C@H](C(=O)N[C@@H](Cc1c[nH]cn1)C(=O)N[C@@H](CC(=O)O)C(=O)N[C@@H](Cc1ccccc1)C(=O)N[C@H](C(=O)N[C@@H](CC(=O)O)C(=O)N[C@@H](CCCCN)C(=O)NCC(=O)N[C@@H](CO)C(=O)NCC(=O)N[C@@H](CO)C(=O)NCC(=O)N[C@@H](CSCC(=O)O[C@H]1CC[C@@]2(C)C(=CC[C@H]3[C@@H]4CC[C@H]([C@H](C)CCCC(C)C)[C@@]4(C)CC[C@@H]32)C1)C(N)=O)C(C)C)[C@@H](C)CC)[C@@H](C)CC)[C@@H](C)CC)[C@@H](C)O)[C@@H](C)CC)[C@@H](C)O)[C@@H](C)CC [TAT-EBO-IAAILP-Chol] | – | the most potent peptide we designed so far

From patent US20230159597A1 (priority 2020, published 2023)
